Test results from patent US5665714A, “N-substituted glycerophosphoethanolamines” (Clarion Pharmaceuticals Inc., priority 1996, dated 1997).

Legend:
[1] = test system: MDA-MB-231 estrogen receptor negative human breast carcinoma cell line; test: in vitro MDA-MB-231 cell inhibition assay (anti-tumor/antineoplastic activity, sulforhodamine B); assay type: cell-based; details: MDA-MB-231, 48 hours, 0 to 100 μM, FIG. 1, read-out: marked inhibition of cell growth at concentrations above
Source text: FIG. 1 is a graphical representation of results from an in vitro MDA-MB-231 cell inhibition assay of two compounds of the invention, designated CPR 3003 and CPR 3004.
(§1) Assay for Anti-Tumor/Antineoplastic Activity
(§2) 1. Human tumor cell lines, available from the American Type Culture Collection (ATCC):
a. MDA-MB-231 (ATCC HTB 26): an estrogen receptor negative human breast carcinoma cell line (attachment dependent); and
a. for cell line 1-a: Dulbecco's Modified Eagle's Medium (DMEM) plus 10% Fetal Bovine Serum (FBS); and
(§3) 3. Standard protocol for culturing cell lines: in T-75 or T-150 flasks; 37° C.; 95% air, 5% CO2; 100% humidity.
(§4) a. Cell lines 1-a and 1-b are passaged when approximately 80% confluent; with trypsin (1 mg/mL) and EDTA (1 mM EDTA in Ca-Mg free Hank's balanced salt solution); at a 1:4 to 1:5 split.
b. […]
(§5) h. Read absorbance at 564 nm using a standard 96-well microtiter plate reader. Absorbance readings are linear with dye concentrations below 1.8 absorbance units. To reduce absorbance, decrease wavelength at which measurements are taken.
(§6) a. For a single point reading, a higher absorbance indicates a higher cell number; […]
(§7) d. Calculate CN (cell number as % of Control): [formula] where A(test compound) is absorbance with test compound present in the culture medium, A(control) is absorbance of control, and A(background) is absorbance of background;

[2] = test system: HT-29 human colon carcinoma cell line; test: in vitro HT 29 cell inhibition assay (anti-tumor/antineoplastic activity, sulforhodamine B); assay type: cell-based; details: HT-29, 48 hours, 0 to 100 μM, FIG. 2, read-out: marked inhibition of cell growth at concentrations above
Source text: FIG. 2 is a graphical representation of results from an in vitro HT 29 cell inhibition assay of two compounds of the invention, designated CPR 3003 and CPR 3004.
as §1, §2
b. HT-29 (ATCC HTB 38): a human colon carcinoma cell line (attachment dependent).
b. for cell line 1-b: 1:1 DMEM and Ham's F-12 (DMEM/F12) plus 10% FBS.
as §3, §4
b. All procedures are performed aseptically in a Class II biological safety cabinet using standard BL-2 containment procedures. […]
as §5, §6, §7

[3] = test system: PAM-212 murine keratinocyte cell line; test: Assay for anti-psoriatic activity by inhibition of keratinocyte proliferation (PAM-212); assay type: cell-based, murine (BALB/c mice); details: Mus musculus, PAM212; PAM-212, 48 hours, FIG. 3; read-out: marked inhibition of keratinocyte-proliferation at concentrations above
Source text: FIG. 3 is a graphical representation of results from an in vitro PAM-212 cell inhibition assay of two compounds of the invention, designated CPR 3003 and CPR 3004.
Assay for Anti-psoriatic Activity by Inhibition of Keratinocyte Proliferation
1. Cell line: PAM-212 murine keratinocyte cell line isolated and cultivated from newborn BALB/c mice (see S. H. Yuspa et al., Cancer Research, 40, 4694-4703, December, 1980) that appears to retain many characteristics of normal keratinocytes.
2. Culture medium: 1:1 DMEM and Ham's F-12 with 10% FBS.
3. Culture conditions are the same as those described previously in parts 3(a) and 3(b) of Example 9.
4. Methodology is the same as that described previously in part 4 of Example 9, except that, with reference to part 4 (b), cell concentration is adjusted to 1,000 cells per 100 μL (rather than 5,000 cells per 100 μL), and, with reference to part 4(e), test compounds are diluted in DMEM/F12 prior to addition to cell wells.
5. End point determination and data analysis are done as described previously in parts 5 and 6 of Example 9.

[4] = test system: RAW 264.7 murine monocyte/macrophage line; test: Assay for anti-inflammatory activity by inhibition of macrophage chemiluminescence (RAW 264.7, PMA, luminol); assay type: cell-based; details: 1 minute
Source text: FIG. 4 is a graphical representation of results from an in vitro RAW 264.7 cell macrophage inhibition chemiluminescence assay of two compounds of the invention, designated CPR 3003 and CPR 3004.
Assay for Anti-inflammatory Activity by Inhibition of Macrophage Chemiluminescence
The RAW 264.7 cell line (available from the ATCC under accession no. TIB 71) is a murine monocyte/macrophage line the cells of which show many of the differentiative functions of a macrophage. Like macrophages, the cells are capable of phagocytosis and undergo a respiratory burst (increased oxygen consumption) and production of oxygen radicals (e.g., superoxide) in response to appropriate activation signals. Agents that inhibit the activation of these cells in vitro, so as to inhibit the respiratory burst and corresponding production of oxygen radicals associated with the activation, are therefore inhibitors of macrophage activation and critical steps in inflammatory processes. These agents are likely, then, to be anti-inflammatories.
The respiratory burst and corresponding production of oxygen radicals that accompany macrophage activation can be measured in a variety of ways, including chemiluminescence based on the reaction of the oxygen radicals with luminol added to the culture medium (see M. A. Trush et al, 1978, "The Generation of Chemiluminescence by Phagocytic Cells." Methods in Enzymology 57: 462-494). Indeed, chemiluminescence generated from luminol in the culture medium of macrophage cell lines is recognized in the art as a marker of macrophage activation.
1. Cell line: RAW 264.7 (ATCC TIB 71);
2. Culture medium: DMEM with 10% FBS (attachment dependent);
3. Standard protocol for culturing cell lines: in T-75 or T-150 flasks; 37° C.; 95% air, 5% CO2; 100% humidity;
4. Cell lines are passaged when approximately 80% confluent with trypsin (1 mg/mL) and EDTA ([…] in Ca-Mg free Hank's balanced salt solution), at a 1:4 to 1:5 split;
5. Trypsinize the cells and count with a hemocytometer;
6. Adjust concentration of cells to approximately 1,000,000 cells per mL;
7. Suspend cells in DMEM lacking phenol red and without FBS;
8. Pipette 1 mL, into a standard luminometer cuvet (12×75), commercially available from Analytical Luminescence Laboratories (San Diego, Calif.);
9. Add luminol to final concentration of 1 μM;
10. Add test compound at concentrations of 0, 1, 3, 10, or 30 μM;
11. Add 100 nanograms of phorbol myristate acetate (PMA);
12. Wait 1 minute and read photo counts (i.e., luminescence) on a Monolight 2010 luminometer available from Analytical Luminescence Laboratories;
13. The results are represented in FIG. 4, which illustrates the marked decrease in measured luminescence by the compounds tested at concentrations above 1 μM. Results are calculated as percent of control (no test compound present);
14. The results are also presented in Table 1, which tabulates the measured luminescence units at the indicated concentration of tested compound.

[5] = test system: PAF (Platelet Activating Factor)-induced increase in TPR (Total Pulmonary Resistance); test: Assay for anti-PAF activity in anesthetized guinea pigs (PAF-induced increase in total pulmonary resistance); assay type: in vivo, guinea pig; details: for PAF-induced increase in TPR, % of Controls: n = 5, PAF Control 112.2
Description: FIG. 5 is a graphical representation of results from an in vivo antagonism of PAF (Platelet Activating Factor)-induced increase in TPR (Total Pulmonary Resistance) by the compound of the invention, designated CPR 3003.
Assay for Anti-PAF Activity in Anesthetized Guinea Pigs
Guinea pigs of 650-1000 g were used in order to facilitate catheterization of the jugular vein and carotid artery. The guinea pigs were anesthetized with 35-45 mg/kg pentobarbital sodium. When or if the recordings described below were unstable, anesthetic additions were made during the course of the intervention. The cutdown was a ventral medial incision over the cervical area so that the trachea, jugular vein and carotid artery could be cannulated. The animals were immediately attached to a volume regulated Harvard® rodent respirator, Model 683, via a tracheostomy and the respirator was set at 60 respirations per minute and a volume of 8 ml/kg to maintain a normal arterial PCO2 of approximately 40 mm Hg. Pancuronium bromide, a muscle relaxant, was then given intravenously at a dose of 0.2 mg/kg to prevent spontaneous breathing. A tube was connected to the respirator pump and the endotracheal catheter was attached to a pressure-transducing strain gauge and then to a 2-channel Gilson® physiological recorder. One channel of the recorder inscribed the pressure tracing from the airway; the second channel inscribed the pressure tracing from a similar strain gauge attached directly to a catheter inserted into the carotid artery. These two parameters were measured before and after each drug was given and at each increment in the dose response studies with each drug candidate and recorded. Total pulmonary resistance (TPR) was calculated as the difference between the expiratory pressure and inspiratory pressures with a constant volume.
After the anesthetic and muscle relaxant were given, the animal was allowed to stabilize. The airway was gently suctioned with a syringe and the lungs are briefly inflated by closing the expiratory port on the ventilator until the pressure was approximately three times resting pressure. When the pressure returned to a steady state, this TPR was considered control pressure. The dose-related increases or decreases were quantitated against these controls to determine the percent inhibition of PAF activity. Two doses of PAF were given as controls before the test compound was administered.
Decreases of TPR in a dose-related way indicate an inhibition of the constrictor activity of PAF on the airway.

tumor = details: Andreesen, Prog. Biochem. Pharmacol. 22, 118-131; cited from earlier work

| Compound | minimal effective concentration [1] [µM] | minimal effective concentration [2] [µM] | minimal effective concentration [3] [µM] | measured luminescence ([4]; 1 μM test compound) | measured luminescence ([4]; 3 μM test compound) | measured luminescence ([4]; 10 μM test compound) | measured luminescence ([4]; 30 μM test compound) | PAF-induced increase in TPR, % of Controls ([5]; 1 μM) | PAF-induced increase in TPR, % of Controls ([5]; 10 μM) | PAF-induced increase in TPR, % of Controls ([5]; .1 μM) | change of PAF-induced increase in TPR ([5]; incremental doses of 0.1, 1, and 10 μM) | anti-tumor activity (tumor) |
| --- | --- | --- | --- | --- | --- | --- | --- | --- | --- | --- | --- | --- |
| CCCCCCCCCCCCCCCCCCOCC(COP(=O)(O)OCCNC1=NCCN1)OC (stereo not shown) [CPR 3004, 1-O-n-octadecyl-2-O-methyl-glycero-3-phospho-N-(2-imidazolinyl)-ethanolamine] | > 3 | > 3 | > 10 | 524,414 Luminescence Units | 134,836 Luminescence Units | 23,849 Luminescence Units | 6,128 Luminescence Units |  |  |  |  |  |
| CCCCCCCCCCCCCCCCCCOCC(COP(=O)(O)OCCNC1=NCCN1C1=NCCN1)OC (stereo not shown) [CPR 3003, 1-O-n-octadecyl-2-O-methyl-glycero-3-phospho-N-[3-(2-imidazolinyl)-2-imidazolinyl]-ethanolamine] | > 3 | > 3 | > 10 | 2,051,640 Luminescence Units | 755,617 Luminescence Units | 224,213 Luminescence Units | 18,228 Luminescence Units | 110 % of Controls | 7 % of Controls | 232.2 % of Controls | change the PAF-induced increase in TPR in all animals |  |
| CCCCCCCCCCCCCCCCCCOC[C@H](COP(=O)([O-])OCC[N+](C)(C)C)OC [ET 18-OCH3, 1-O-octadecyl-2-O-methyl-sn-glycero-3-phosphocholine] |  |  |  |  |  |  |  |  |  |  |  | markedly potent anti-tumor activity |
